Assay in all cases: growth of human tumour cells (NCI), 48 h
The subject of assay [1] is NCI/ADR-RES ovarian.
Assay [2] deals with PC-3 prostate.
Assay [3] has as its system SF-295 CNS.
The subject of assay [4] is HOP-62 NSCLC.
For assay [5], the system named is LOX IMVI melanoma.
The test system of assay [6] is HL-60(TB) leukemia.
The subject of assay [7] is HS 578T breast.
Assay [8] concerns SF-539 CNS.

Structures are written as SMILES.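 Each compound was tested at five concentrations against cells in 96-well plates for 48 hours. GI50: concentration for 50% inhibition of growth. Definition used: TGI = concentration required for complete inhibition of growth.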 A value given as a limit tells only on which side of the number the result lay.

For `CC(C)=CCC/C(C)=C/CC/C(C)=C/CC/C=C(\C)CC/C=C(\C)CCC(=O)Nc1ccn(C2OC(CO)C(O)C2(F)F)c(=O)n1` (centres undefined), the GI50 in assay [1] was 0.116 µM; in assay [2] it was 1.19 µM; in assay [3], 0.0329 µM; in assay [4], 0.0507 µM; in assay [5], 0.347 µM; in assay [6], 0.0618 µM. In addition, the figures for the GI50 in assay [7] and in assay [8] were 10.3 µM and 0.0268 µM, respectively. The TGI in assay [1] was 16.6 µM; in assay [2] it was 20.5 µM; in assay [3] it was 0.154 µM; in assay [4], 2.38 µM; in assay [5] it was 14.5 µM; in assay [6], 0.539 µM. The TGI in assay [7] is 35.2 µM; in assay [8] it was 0.475 µM.
On to `COc1ccc(OC)c(Cn2cc3c(c2)-c2oncc2CC3)c1`, for which the GI50 is 2.01 µM in assay [1]; 5.89 µM in assay [2]; 2.43 µM in assay [3]; 4.08 µM in assay [4]; 4.06 µM in assay [5]; 1.65 µM in assay [6]. For the same molecule, the GI50 was 2.25 µM in assay [7] and 2.28 µM in assay [8]. The TGI in assay [1] is 6.68 µM; in assay [2], greater than 100 µM; in assay [3] it was 11.1 µM; in assay [4], greater than 100 µM; in assay [5], greater than 100 µM; in assay [6] it was 6.74 µM. Besides, the TGI was found to be 8.32 µM in assay [7] and 7.63 µM in assay [8].
Consider `CCN(CCO)CC(C)Nc1ccc([N+](=O)[O-])c2sc3ccccc3c(=O)c12` (centres undefined), for which the GI50 in assay [1] is 1.6 µM; in assay [2], 1.33 µM; in assay [3] it was 0.488 µM; in assay [4], 1.27 µM; in assay [5], 0.746 µM; in assay [6], 0.917 µM. Further, the GI50 was 1.75 µM in assay [7] and 3.6 µM in assay [8]. For the same molecule, the TGI in assay [1] amounted to 5.86 µM; in assay [2], 4.55 µM; in assay [3], 2.12 µM; in assay [4] it was 5.55 µM; in assay [5], 2.69 µM; in assay [6], 4 µM. In addition, the results for the TGI in assay [7] and in assay [8] were 10.5 µM and 19.2 µM, respectively.
In the case of `CC1=CC(=O)C(O)C2(C)C1CC(O)C13COC4(C)C(OC(=O)C41)C(O)C23` (centres undefined), the GI50 in assay [1] is 18.2 µM; in assay [2], 26.4 µM; in assay [3], 8.02 µM; in assay [4], 6.12 µM; in assay [5], 2.41 µM; in assay [6], 4.24 µM. Also, the GI50 in assay [7] was 12.5 µM; in assay [8], 8.13 µM. The TGI in assay [1] was 61.3 µM; in assay [2], greater than 100 µM; in assay [3] it was 39.1 µM; in assay [4], 36.6 µM; in assay [5], 8.4 µM; in assay [6], greater than 100 µM. In addition, the TGI in assay [7] amounted to 57.2 µM; in assay [8], 35.5 µM.
In the case of `CCOc1nc(N)nc(C)c1N=Nc1ccc(Cl)cc1`, the TGI in assay [1] was greater than 100 µM; in assay [2], greater than 100 µM; in assay [3], 94.1 µM; in assay [4], greater than 100 µM; in assay [5], greater than 100 µM; in assay [6], greater than 100 µM. The TGI in assay [7] was 38.4 µM; in assay [8], greater than 100 µM.
For the molecule `CCN(Cc1ccc(Cl)s1)c1ccc(CO)c(Cl)c1`, the GI50 in assay [1] is 10.4 µM; in assay [2] it was 12.7 µM; in assay [3] it was 0.352 µM; in assay [4], 0.746 µM; in assay [5], 5.24 µM; in assay [6], 3.11 µM. Besides, the GI50 in assay [7] is 11.7 µM; in assay [8], 13 µM. For the same molecule, the TGI amounted to 47.1 µM in assay [1]; 49.4 µM in assay [2]; 15.9 µM in assay [3]; 18.4 µM in assay [4]; 18.8 µM in assay [5]; 26.2 µM in assay [6]. In addition, the TGI in assay [7] is greater than 60.4 µM; in assay [8], 28.5 µM.
Take `O=C1NC(=O)C(c2cccc(Cl)c2)=C1Nc1ccc(O)c(Cl)c1`: the GI50 was 10.4 µM in assay [1]; 12.2 µM in assay [2]; 11.6 µM in assay [3]; 9.57 µM in assay [4]; 8.85 µM in assay [5]; 8.75 µM in assay [6]. Further, the GI50 is 5.11 µM in assay [7] and 7.71 µM in assay [8]. In addition, the TGI in assay [1] was greater than 25 µM; in assay [2], greater than 25 µM; in assay [3], greater than 25 µM; in assay [4], 24.3 µM; in assay [5] it was greater than 25 µM; in assay [6], greater than 25 µM. The TGI in assay [7] is 19.3 µM; in assay [8], greater than 21.9 µM.

Source of the values: PubChem BioAssay (NCI).
